Test results as given in patent US20260137677A1, “PROTACS USEFUL AGAINST THE MAIN PROTEASE SARS-COV-2” (Tocris Cookson Limited, priority 2022, published 2026).
pIC50: −log10 of the molar value.

How the values were obtained:
[1] = molecular target: T1, recombinant SARS-CoV-2 main protease (Mpro) (Severe acute respiratory syndrome coronavirus 2, UniProt P0DTD1); assay: biochemical; conditions: FRET assay, Mpro 50 nM, substrate 10 μM
T1 construct: the main protease (Mpro; also called 3CLpro) which has an essential role in processing the polyproteins

[2] = system: SARS-CoV-2 (SARS-CoV2/ZG/297-20) in Vero E6 cells; assay: microbe, parasite or virus in culture; assay type: cell-based; conditions: Severe acute respiratory syndrome coronavirus 2, Vero C1008, 72 h; for inhibition at 10 µM: read-out: Antiviral Activity 10 uM; for inhibition at 50 µM: read-out: Antiviral Activity 50 uM

Compound	pIC50 [1]	inhibition at 10 µM [2] [%]	inhibition at 50 µM [2] [%]
O=C1CCC(N2C(=O)c3cccc(NCCOCCOCCOCCNC(=O)C(NC(=O)[C@@H](c4cccnc4)N(C(=O)c4ccco4)c4ccc5c(c4)oc4ccccc45)c4ccccc4)c3C2=O)C(=O)N1 (mixture of isomers) [TS297F1]	> 6.00	< 0	< 0
O=C1CCC(N2C(=O)c3cccc(NCCCCCNC(=O)C(NC(=O)[C@@H](c4cccnc4)N(C(=O)c4ccco4)c4ccc5c(c4)oc4ccccc45)c4ccccc4)c3C2=O)C(=O)N1 (mixture of isomers) [TS301F1]	4.60 to 5.00	< 0	< 0
O=C1CCC(N2C(=O)c3cccc(NCCOCCOCCOCCOCCNC(=O)C(NC(=O)[C@@H](c4cccnc4)N(C(=O)c4ccco4)c4ccc5c(c4)oc4ccccc45)c4ccccc4)c3C2=O)C(=O)N1 (mixture of isomers) [TS303F1]	> 6.00	< 0	< 0
O=C1CCC(N2C(=O)c3cccc(NCCOCCNC(=O)C(NC(=O)[C@@H](c4cccnc4)N(C(=O)c4ccco4)c4ccc5c(c4)oc4ccccc45)c4ccccc4)c3C2=O)C(=O)N1 (mixture of isomers) [TS312F1]	> 5.00	< 0	< 0
O=C1CCC(N2C(=O)c3cccc(NCCCCNC(=O)[C@@H](NC(=O)C(c4cccnc4)N(C(=O)c4ccco4)c4ccc5c(c4)oc4ccccc45)c4ccccc4)c3C2=O)C(=O)N1 (mixture of isomers) [TS313F1]	> 6.00	< 25	< 0
O=C1CCC(N2C(=O)c3cccc(NCCNC(=O)[C@@H](NC(=O)[C@@H](c4cccnc4)N(C(=O)c4ccco4)c4ccc5c(c4)oc4ccccc45)c4ccccc4)c3C2=O)C(=O)N1 (mixture of isomers) [TS365F1]	> 6.00	< 75	< 25
O=C1CCC(N2C(=O)c3cccc(NCCCCCCCCNC(=O)[C@@H](NC(=O)C(c4cccnc4)N(C(=O)c4ccco4)c4ccc5c(c4)oc4ccccc45)c4ccccc4)c3C2=O)C(=O)N1 (mixture of isomers) [TS369F1]	< 4.60	< 25	< 25
O=C1CCC(N2C(=O)c3cccc(NCCNC(=O)[C@H](NC(=O)[C@@H](c4cccnc4)N(C(=O)c4ccco4)c4ccc(-c5ccccc5)cc4)c4ccccc4)c3C2=O)C(=O)N1 (mixture of isomers) [TS449F1]	> 7.00	< 0	< 0
O=C1CCC(N2C(=O)c3cccc(NCCCCNC(=O)[C@H](NC(=O)[C@@H](c4cccnc4)N(C(=O)c4ccco4)c4ccc(-c5ccccc5)cc4)c4ccccc4)c3C2=O)C(=O)N1 (mixture of isomers) [TS451F1]	> 5.00	< 0	< 0
O=C1CCC(N2C(=O)c3cccc(NCCOCCOCCOCCNC(=O)[C@H](NC(=O)[C@@H](c4cccnc4)N(C(=O)c4ccco4)c4ccc(-c5ccccc5)cc4)c4ccccc4)c3C2=O)C(=O)N1 (mixture of isomers) [TS455F1]	> 7.00	< 0	< 0
O=C1CCC(N2C(=O)c3cccc(NCCCNC(=O)[C@@H](NC(=O)[C@@H](c4cccnc4)N(C(=O)c4ccco4)c4ccc(-c5ccccc5)cc4)c4ccccc4)c3C2=O)C(=O)N1 (single isomer, unassigned) [TS450F1]	> 6.00	< 0	< 0
O=C1CCC(N2C(=O)c3cccc(NCCOCCNC(=O)[C@@H](NC(=O)[C@@H](c4cccnc4)N(C(=O)c4ccco4)c4ccc(-c5ccccc5)cc4)c4ccccc4)c3C2=O)C(=O)N1 (single isomer, unassigned) [TS453F1b]	> 6.00	< 0	< 0
O=C1CCC(N2C(=O)c3cccc(NCCOCCOCCNC(=O)C(NC(=O)C(c4cccnc4)N(C(=O)c4ccco4)c4ccc(-c5ccccc5)cc4)c4ccccc4)c3C2=O)C(=O)N1 (single isomer, unassigned) [TS454F1]	> 6.00	< 0	< 0
O=C1CCC(N2C(=O)c3ccc(NCCOCCNC(=O)[C@H](NC(=O)[C@@H](c4cccnc4)N(C(=O)c4ccco4)c4ccc(-c5ccccc5)cc4)c4ccccc4)cc3C2=O)C(=O)N1 (single isomer, unassigned) [TS462]	> 6.00	< 25	< 25
O=C1CCC(N2C(=O)c3ccc(NCCOCCOCCNC(=O)[C@H](NC(=O)[C@@H](c4cccnc4)N(C(=O)c4ccco4)c4ccc(-c5ccccc5)cc4)c4ccccc4)cc3C2=O)C(=O)N1 (single isomer, unassigned) [TS464]	> 6.00	< 0	< 25
O=C1CCC(N2C(=O)c3ccc(NCCOCCOCCOCCNC(=O)[C@H](NC(=O)[C@@H](c4cccnc4)N(C(=O)c4ccco4)c4ccc(-c5ccccc5)cc4)c4ccccc4)cc3C2=O)C(=O)N1 (single isomer, unassigned) [TS465]	> 7.00	< 25	< 50
O=C1CCC(N2C(=O)c3ccc(N4CCN(C(=O)[C@H](NC(=O)[C@@H](c5cccnc5)N(C(=O)c5ccco5)c5ccc(-c6ccccc6)cc5)c5ccccc5)CC4)cc3C2=O)C(=O)N1 (single isomer, unassigned) [TS466]	> 7.00	< 0	< 0
C[C@H](NC(=O)[C@@H](c1cccnc1)N(C(=O)c1ccco1)c1ccc(-c2ccccc2)cc1)c1ccccc1OCCCCOc1cccc2c1C(=O)N(C1CCC(=O)NC1=O)C2=O (stereo in doubt) [TS355F1]	> 5.00	–	–
O=C1CCC(N2C(=O)c3cccc(NCCOCCOCCNC(=O)[C@@H](NC(=O)C(c4cccnc4)N(C(=O)c4ccco4)c4ccc5c(c4)oc4ccccc45)c4ccccc4)c3C2=O)C(=O)N1 (some centres unmarked) [TS302F1]	> 5.00	–	–
C[C@@H](NC(=O)[C@H](c1cccnc1)N(C(=O)c1ccco1)c1ccc(-c2ccccc2)cc1)c1cccc(OCCCCOc2cccc3c2C(=O)N(C2CCC(=O)NC2=O)C3=O)c1 (some centres unmarked) [TS325F1]	> 5.00	–	–
C[C@@H](NC(=O)C(c1cccnc1)N(C(=O)c1ccco1)c1ccc(-c2ccccc2)cc1)c1cccc(OCCCCOc2cccc3c2C(=O)N(C2CCC(=O)NC2=O)C3=O)c1 (some centres unmarked) [TS325F2]	> 5.00	–	–
C[C@@H](NC(=O)[C@H](c1cccnc1)N(C(=O)c1ccco1)c1ccc(-c2ccccc2)cc1)c1cccc(OCCOc2cccc3c2C(=O)N(C2CCC(=O)NC2=O)C3=O)c1 (some centres unmarked) [TS338F1]	4.60 to 5.00	–	–
C[C@@H](NC(=O)[C@H](c1cccnc1)N(C(=O)c1ccco1)c1ccc(-c2ccccc2)cc1)c1cccc(OCCCCCCCCOc2cccc3c2C(=O)N(C2CCC(=O)NC2=O)C3=O)c1 (some centres unmarked) [TS339F2]	4.60 to 5.00	–	–
Cc1ncsc1-c1ccc(CNC(=O)[C@@H]2C[C@@H](O)CN2C(=O)[C@@H](NC(=O)C2(F)CC2)C(C)(C)C)c(OCCNC(=O)[C@@H](NC(=O)C(c2cccnc2)N(C(=O)c2ccco2)c2ccc3c(c2)oc2ccccc23)c2ccccc2)c1 (some centres unmarked) [TS347F1]	> 5.00	–	–
Cc1ncsc1-c1ccc(CNC(=O)[C@@H]2C[C@@H](O)CN2C(=O)[C@@H](NC(=O)C2(F)CC2)C(C)(C)C)c(OCCCCCCNC(=O)[C@@H](NC(=O)C(c2cccnc2)N(C(=O)c2ccco2)c2ccc3c(c2)oc2ccccc23)c2ccccc2)c1 (some centres unmarked) [TS349F1]	> 5.00	–	–
